Assay results taken from patent publication US6121244A, “Antitumoral method by administration of partricin derivatives” (Prospa B.V., priority 1997, dated 2000).
“Also recorded” adds a separate entry of the source. Where two headings read alike, the source gives them in different places.

What was measured:
[1] = Water solubility; format: physicochemical; conditions: as salts, in particular diascorbate
[2] = test system: murine WEHI-3B (D+) myelomonocytic leukemia cells; assay: Cytotoxicity by MTT microtiter test; format: cell-based; conditions: for dose dependence of toxic effect: linear regression
Experimental: A) Microtiter test (MTT) (Pessina et al. "In vitro short-term and long-term cytotoxicity of fluoroquinones on murine cell line", Ind. J.
The cultures were incubated for 7 days at 37° C. in air+5% CO2 and finally 20 μl of MTT at a conc. of 5 mg/ml in PBS were added to each well. After 3-h incubation at 37° C. the cultures were destroyed with 100 μl of a lytic buffer prepared with sodium dodecylsulfate/dimethylforma-mide/acetic acid/HCl. After further overnight incubation, the optical density (OD) at 620 nm was determined with a microplate LP200 detector. The O.D. of the wells with no cells was considered as 0% proliferation. The O.D. of the wells with growing cells in drug-free medium was considered as 100% proliferation.

[3] = test system: carcino-embryonic antigen (CEA); assay: Carcino-embryonic antigen (CEA) in a patient under chemotherapy, CEA-RIA; format: in vivo, human (patient)
[4] = test system: erythrocytes; conditions: cited from earlier work; for total hemolytic conc. (THC): erythrocytes
[5] = test system: thyroid medullary carcinoma (TMC) cells; assay: Cytotoxicity test (MTT) of cisplatin after pre-treatment with SPA-S-843; format: cell-based
[6] = test system: murine WEHI-3B (D+) myelomonocytic leukemia cells; conditions: clonogenic test; amphotericin B vs SPA-S-843; FIG. 4
Experimental: Substances: SPA-S-843 and amphotericin B were dissolved in sterile bidistilled water to a concentration of 2000 μg/ml. The working solutions were prepared in McCoy medium supplemented with penicillin+streptomycin (100 U/ml +100 μg/ml) at the concentrations of from 200 μg/ml to 1.56 μg/ml by subsequent serial 1:2 dilutions.
The murine WEHI-3B (D+) myelomonocytic leukemia cells were maintained through subcultures in 25-cm^2 plastic bottles in McCoy medium (Seromed, Germany) containing 5% FCS (Gibco, USA).
Cell sensitivity to the toxic action of SPA-S-843 in comparison with that of amphotericin B, taken as reference substance, was determined by two different methods:
Acta, 1013, 206-11, 1989).
The clonogenic capacity of WEHI-3B(D+) cells was tested by culturing 300 cells in 0.3 ml of complete enriched medium [McCoy +10% FCS, 10 mM sodium pyruvate, 4% NEAA (10×), 4% Mem Vit (100×)]+0.3% agar in 35 mm Petri plates.
SPA-S-843 and amphotericin B (100 μl) had previously been added to the Petri plates at serial concentrations of from 25 to 0.19 μg/ml. The control plates contained 100 μl of culture medium. The colonies were counted after 7 days of incubation at 37° C. in an atmosphere of air+5% CO2.

[7] = mice, i.v.; cited from earlier work

Row | Compound | water solubility [1] | cytotoxicity on WEHI-3B(D+) cells, compared with amphotericin B ([2]; 7 days, FIG. 1) | dose dependence of toxic effect ([2]; FIG. 1) | IC10 ([2]; vs amphotericin B, FIG. 2) | IC50 ([2]; vs amphotericin B, FIG. 2) | IC90 ([2]; vs amphotericin B, FIG. 2) | CEA after phase B ([3]; SPA-S-843 50 mg i.v. combined with 5-fluorouracil (500 mg) and folinic acid (250 mg), 3 weeks later) [ng/mL] | sensitivity to usual chemotherapeutic agents in combination with the polyene ([3]; combination with SPA-S-843, one patient) | concentration at which lytic activity on erythrocytes appears ([4]; of the order of) [ng/mL] | potentiation of cisplatin cytotoxicity ([5]; incubation with SPA-S-843 (2 μg/ml)) | effect on resistance of TMC cells to cisplatin ([5]; pre-treatment with SPA-S-843 (2 μg/ml)) | total hemolytic conc. (THC) [4] [µg/mL] | IC10 [6] | IC50 [6] | IC90 [6] | LD50 [7] [mg/kg]
1 | CNc1ccc(C(=O)CC(O)CCC(C)C2OC(=O)CC(O)CC(=O)CC(O)CC(O)CC(O)CC(O)CC3(O)CC(O)C(C(=O)NCCN(C)C)C(CC(OC4OC(C)C(O)C(NC(=O)CN(C)C)C4O)C=CC=CC=CC=CC=CC=CC=CC2C)O3)cc1 (stereo not drawn) [SPA-S-843, N-dimethylamino-acetyl-partricin A 2-dimethylaminoethylamide] | water soluble | substantially higher; also recorded: more sensitive to SPA-S-843 than to amphotericin B | dose-related kinetics | significantly lower | significantly lower | significantly lower | 65 | re-established the sensitivity | ≥ 18000 | able to potentiate cisplatin cytotoxicity against resistant cells up to the level of naturally sensitive cells; also recorded: cytotoxic for all TMC cells | substantially counteracted |  |  |  |  | 
2 | CNc1ccc(C(=O)CC(O)CCC(C)C2OC(=O)CC(O)CC(=O)CC(O)CC(O)CC(O)CC(O)CC3(O)CC(O)C(C(=O)NCCN(C)C)C(CC(OC4OC(C)C(O)C(NC(=O)CN(C)C)C4O)C=CC=CC=CC=CC=CC=CC=CC2C)O3)cc1 (stereo not drawn) [SPA-S-843 free base, N-dimethylamino-acetyl-partricin A 2-dimethylaminoethylamide] |  |  |  |  |  |  |  |  |  |  |  | > 18 |  |  |  | 
3 | C[C@@H]1[C@H](O)[C@@H](C)/C=C/C=C/C=C/C=C/C=C/C=C/C=C/[C@H](O[C@@H]2O[C@H](C)[C@@H](O)[C@H](N)[C@@H]2O)C[C@@H]2O[C@](O)(C[C@@H](O)C[C@@H](O)[C@H](O)CC[C@@H](O)C[C@@H](O)CC(=O)O[C@H]1C)C[C@H](O)[C@H]2C(=O)O [amphotericin B] |  |  | dose-related kinetics |  |  |  |  |  |  |  |  | 2 | significantly higher | significantly higher | significantly higher | 4.77
